Results on 1 compound are retold here after patent US20230021647A1, “METHOD OF TREATING A PATIENT INFECTED WITH A CORONAVIRUS AND HAVING A BASELINE LEVEL OF CRP BELOW 150 MG/L” (Theravance Biopharma R&D IP, LLC, priority 2021, published 2023).

The test system of the series is acute lung injury associated with COVID-19. Kind of series: Phase 2 study Part 2, 3 mg vs placebo in hospitalized COVID-19 patients. It is filed as in vivo, human. Particulars: for time to recovery, median: placebo 11. Here is the method:
Eligible subjects were stratified by age (≤60 vs >60 years) and concurrent use of antiviral medications (e.g., remdesivir, lopinavir, chloroquine) at baseline. […] Approximately 20% of participants were enrolled with a baseline clinical status score of six (NIPPV or high flow oxygen device) based on the 8-point ordinal scale (Table 13).
The study drug was administered at 3 mg once-daily in a single dose with an additional 3 mg loading dose on day 1, for up to 7 days or until discharge from the hospital, whichever was earlier. Subjects were followed for up to 28 days or until death, whichever was earlier.
Matching placebo was administered once daily for up to 7 days, via inhalation using a vibrating mesh nebulizer.
In Part 2, the primary endpoint was the number of RFDs from randomization through Day 28. Secondary Endpoints were: change from baseline in SaO2/FiO2 ratio on Day 7, proportion of subjects in each category of the 8-point clinical status scale on Days 7, 14, 21 and 28, and proportion of subjects alive and respiratory failure-free on Day 28. […] Additional exploratory endpoints may include: change from baseline in SaO2/FiO2 ratio in mmHg on Day 7, number of VFDs from randomization to Day 28, proportion of subjects with a SaO2/FiO2 ratio >300 on Days 5 and 7, proportion of subjects in each category of the 6-point clinical status scale on Days 7, 14, 21 and 28, proportion of subjects in each category of vital status (death, discharge, hospitalized) on Days 7, 14, 21 and 28, proportion of subjects with an oxygen saturation >90% on room air, proportion of subjects with fever (>37° C. oral or equivalent), chest imaging (when done for clinical care reasons), biomarkers including: nasal SARS-CoV-2 viral load. The safety endpoints were: change from baseline in vital signs and clinical laboratory results, and incidence and severity of TEAEs. The PK endpoints were population PK parameters for compound 1.
The primary endpoint was the number of respiratory failure-free days (RFDs) from randomization through Day 28. A RFD was defined as a day that a subject is alive and not requiring the use of invasive mechanical ventilation, non-invasive positive pressure ventilation, high-flow oxygen devices, or oxygen supplementation from randomization through Day 28. A clinical status score of <4 (Table 13) was equivalent to a respiratory failure-free day. The number of RFDs was 0 for subjects who use respiratory support for 28 days or longer, or for subjects who died on or before Day 28.
Treatment comparisons were performed using a Van Elteren test (a stratified Wilcoxon rank sum test) adjusting for stratification factors. Treatment difference were summarized based on median of RFD between compound 1 and placebo. Additional prognostic baseline covariates (e.g., comorbidities) were included in the sensitivity analyses.
For SaO2/FiO2, treatment comparisons versus placebo were conducted using a mixed-model repeated measures (MMRM) model. The model included fixed effects for randomized treatment group, study day (Day 7, 14, 21 and 28), treatment group by study day interaction, baseline SaO2/FiO2 ratio, treatment group by baseline SaO2/FiO2 ratio interaction, and stratification factors (baseline age group ≤60 vs >60 years, and concurrent use of antiviral medication at baseline Yes vs. No). A random effect for subject was also included in the model. An unstructured covariance matrix was used to estimate covariance of within-patient scores. The Kenward-Roger approximation was used to estimate denominator degrees of freedom. From this model, least squares means, standard errors, treatment differences in LS means, and 95% confidence intervals (CIs) were estimated.

As for `CCc1cc(O)ccc1-c1ccc2c(-c3nc4c([nH]3)CN(C(C)C)[C@H](C(=O)N3CC(N(C)C)C3)C4)n[nH]c2c1` [Compound 1, (S)-(3-(dimethylamino)azetidin-1-yl)(2-(6-(2-ethyl-4-hydroxyphenyl)-1H-indazol-3-yl)-5-isopropyl-4,5,6,7-tetrahydro-3H-imidazo[4,5-c]pyridin-6-yl)methanone], the plasma exposure result (Part 2) is “low”. Under “Part 2”, the tolerability result is “well-tolerated”. Besides, the “serious infections, patients” value (Part 2, placebo 2.0%) turned out to be 1.0%. For the setting “Part 2, placebo 4.9%”, the “venous thromboembolism, patients” value is listed as “none”. Further, for the setting “Part 2, placebo 7.8%”, the “adverse events of liver abnormalities or disease, patients” value came out at 9.7%. Besides, the “patients discontinued from study, withdrawal for adverse event” value (Part 2, placebo 13 (12.7%)) is recorded as 8 (7.8%) n (%). Further, where the note is “Part 2, placebo 15.7%”, the “serious adverse events, patients” value stood at 9.7%. The “adverse events, patients” value (Part 2, placebo 41.2%) is 34.0%. The “secondary endpoints vs placebo: change in SaO2/FiO2 at Day 7, 8-point Clinical Status, alive and respiratory failure-free at Day 28” value (Part 2 ITT) is given as “no difference”. In addition, the “28-day all-cause mortality HR” value (Part 2 ITT vs placebo, p=0.08) came out at 0.42 and the “28-day all-cause mortality HR” value (Part 2 post-hoc, baseline CRP <150 mg/L vs placebo, p=0.009) turned out to be 0.097. For the same compound, the “time to recovery HR” value is, setting by setting: (Part 2 ITT vs placebo, p=0.12) 1.27; (Part 2 post-hoc, baseline CRP <150 mg/L vs placebo, p=0.02) 1.48. The “RFDs from randomization through Day 28, median” value (Part 2 ITT, 3 mg QD, placebo 21, p=0.61) is 21 days. The “time to recovery, median” value is 10 days (Part 2 ITT) and 10 days (Part 2 post-hoc, baseline CRP <150 mg/L). Besides, the “28-day all-cause mortality, total number of deaths” value by setting is: (Part 2 ITT, placebo 13) 6; (Part 2 post-hoc, baseline CRP <150 mg/L, placebo 9) 1. In addition, the “time to recovery or 28-day all-cause mortality vs placebo” value (Part 2 post-hoc, baseline CRP >150 mg/L (n=30)) is given as “no difference”.
